Experimental data reported in US9902701B2, “Pyridazones and triazinones for treatment and prophylaxis of hepatitis B virus infection” (priority 2014, dated 2018).

test system: HBsAg; assay: HBsAg assay: chemiluminescence immunoassay (CLIA) of secreted HBsAg in supernatant of HepG2.2.15 cells; assay type: cell-based, HBV; settings: Hepatitis B virus
Protocol: HepG2.2.15 cells (Acs et al. Proc Natl Acad Sci USA, 84, (1987), 4641-4), a constitutively HBV-expressing cell line were cultured in DMEM+Glutamax-I medium (Invitrogen, Carlsbad, Calif., USA), supplemented with 10% fetal bovine serum (Invitrogen) and G418 (Invitrogen) at a final concentration of 200 mg/L and maintained in 5% CO2 at 37° C.
HepG2.2.15 cells were seeded in duplicate into white, 96-well plates at 1.5×10^4 cells/well. The cells were treated with a three-fold serial dilution series of the compounds in DMSO. The final DMSO concentration in all wells was 1% and DMSO was used as no drug control.
The HBsAg chemiluminescence immunoassay (CLIA) kit (Autobio Diagnostics Co., Zhengzhou, China, Catalog number: CL0310-2) was used to measure the levels of secreted HBV antigens semi-quantitatively. For the detection 50 μL/well culture supernatant was used and HBsAg was quantified using HBsAg chemiluminescence immunoassay (CLIA) kit (Autobio Diagnostics Co., Zhengzhou, China, Catalog number: CL0310-2), 50 μL of the supernatant was transferred to the CLIA assay plate and 50 μL of enzyme conjugate reagent was added into each well. The plates were sealed and gently agitated for 1 hour at room temperature. The supernatant-enzyme-mixture was discarded and wells were washed 6 times with 300 μL of PBS. The residual liquid was removed by plating the CLIA plate […] on absorbent tissue paper. 25 μL of substrates A and B were added to each well. Luminance was measured using a luminometer (Mithras LB 940 Multimode Microplate Reader) after 10 minutes incubation. Dose-response curves were generated and the IC50 value was extrapolated by using the E-WorkBook Suite (ID Business Solutions Ltd., Guildford, UK). The IC50 was defined as the compound concentration (or conditioned media log dilution) at which HBsAg secretion was reduced by 50% compared to the no drug control.

| Structure (SMILES) | IC50 [nM] |
| --- | --- |
| CN(C(=O)CN1N=C(c2ccc(Cl)cc2)CCC1=O)c1ccc(Cl)cc1 [Example 1-1, N-(4-Chlorophenyl)-2-[3-(4-chlorophenyl)-6-oxo-4,5-dihydropyridazin-1-yl]-N-methyl-acetamide] | 1580 |
| CN(C(=O)CN1N=C(c2ccc(Cl)cc2)CCC1=O)c1ccc(F)c(C(F)(F)F)c1 [Example 1-2, 2-[3-(4-Chlorophenyl)-6-oxo-4,5-dihydropyridazin-1-yl]-N-[4-fluoro-3-(trifluoromethyl)phenyl]-N-methyl-acetamide] | 740 |
| CN(C(=O)CN1N=C(c2ccc(Cl)cc2)CCC1=O)c1ccc(C(F)(F)F)c(F)c1 [Example 1-3, 2-[3-(4-Chlorophenyl)-6-oxo-4,5-dihydropyridazin-1-yl]-N-[3-fluoro-4-(trifluoromethyl)phenyl]-N-methyl-acetamide] | 301 |
| CN(C(=O)CN1N=C(c2ccc(Cl)cc2)CCC1=O)c1ccc(Cl)c(F)c1 [Example 1-4, N-(4-Chloro-3-fluoro-phenyl)-2-[3-(4-chlorophenyl)-6-oxo-4,5-dihydropyridazin-1-yl]-N-methyl-acetamide] | 994 |
| COc1cccc(N(C)C(=O)CN2N=C(c3ccc(Cl)cc3)CCC2=O)c1 [Example 1-5, 2-[3-(4-Chlorophenyl)-6-oxo-4,5-dihydropyridazin-1-yl]-N-(3-methoxyphenyl)-N-methyl-acetamide] | 9630 |
| CN(C(=O)CN1N=C(c2ccc(Cl)cc2)CCC1=O)c1ccc(F)cc1 [Example 1-6, 2-[3-(4-Chlorophenyl)-6-oxo-4,5-dihydropyridazin-1-yl]-N-(4-fluorophenyl)-N-methyl-acetamide] | 3630 |
| Cc1ccc(N(C)C(=O)CN2N=C(c3ccc(Cl)cc3)CCC2=O)cc1 [Example 1-7, 2-[3-(4-Chlorophenyl)-6-oxo-4,5-dihydropyridazin-1-yl]-N-methyl-N-(p-tolyl)acetamide] | 2490 |
| CN(C(=O)CN1N=C(c2ccc(Cl)cc2)CCC1=O)c1ccc(Cl)c(Cl)c1 [Example 1-8, 2-[3-(4-Chlorophenyl)-6-oxo-4,5-dihydropyridazin-1-yl]-N-(3,4-dichlorophenyl)-N-methyl-acetamide] | 246 |
| CN(C(=O)CN1N=C(c2ccc(Cl)cc2)CCC1=O)c1ccc(C(F)(F)F)cc1 [Example 1-9, 2-[3-(4-Chlorophenyl)-6-oxo-4,5-dihydropyridazin-1-yl]-N-methyl-N-[4-(trifluoromethyl)phenyl]acetamide] | 389 |
| CN(C(=O)CN1N=C(c2ccc(Cl)cc2)CCC1=O)c1ccc(C#N)cc1 [Example 1-10, 2-[3-(4-Chlorophenyl)-6-oxo-4,5-dihydropyridazin-1-yl]-N-(4-cyanophenyl)-N-methyl-acetamide] | 5630 |
| COC(=O)c1ccc(N(C)C(=O)CN2N=C(c3ccc(Cl)cc3)CCC2=O)cc1 [Example 1-11, Methyl 4-[[2-[3-(4-chlorophenyl)-6-oxo-4,5-dihydropyridazin-1-yl]acetyl]-methyl-amino]benzoate] | 8740 |
| CC(C)N(C(=O)c1ccc(N(C)C(=O)CN2N=C(c3ccc(Cl)cc3)CCC2=O)cc1)C(C)C [Example 1-12, 4-[[2-[3-(4-Chlorophenyl)-6-oxo-4,5-dihydropyridazin-1-yl]acetyl]-methyl-amino]-N,N-diisopropyl-benzamide] | 885 |
| CN(C(=O)CN1N=C(c2ccc(Cl)cc2)CCC1=O)c1ccc(F)cc1F [Example 1-13, 2-[3-(4-Chlorophenyl)-6-oxo-4,5-dihydropyridazin-1-yl]-N-(2,4-difluorophenyl)-N-methyl-acetamide] | 6610 |
| CCCCCN(C)C(=O)c1ccc(N(C)C(=O)CN2N=C(c3ccc(Cl)cc3)CCC2=O)cc1 [Example 1-14, 4-[[2-[3-(4-Chlorophenyl)-6-oxo-4,5-dihydropyridazin-1-yl]acetyl]-methyl-amino]-N-methyl-N-pentyl-benzamide] | 3020 |
| CN(C(=O)CN1N=C(c2ccc(Cl)cc2)CCC1=O)c1ccc(C(=O)NC2CCCCC2)cc1 [Example 1-15, 4-[[2-[3-(4-Chlorophenyl)-6-oxo-4,5-dihydropyridazin-1-yl]acetyl]-methyl-amino]-N-cyclohexyl-benzamide] | 5240 |
| CN(C(=O)CN1N=C(c2ccc(Cl)cc2)CCC1=O)c1ccc(OC(F)(F)F)cc1 [Example 1-16, 2-[3-(4-Chlorophenyl)-6-oxo-4,5-dihydropyridazin-1-yl]-N-methyl-N-[4-(trifluoromethoxy)phenyl]acetamide] | 3860 |

| Structure (SMILES) | IC50 [nM] |
| --- | --- |
| CN(C(=O)CN1N=C(c2ccc(Cl)cc2)CCC1=O)c1cccc(F)c1 [Example 1-17, 2-[3-(4-Chlorophenyl)-6-oxo-4,5-dihydropyridazin-1-yl]-N-(3-fluorophenyl)-N-methyl-acetamide] | 1170 |
| CN(C(=O)CN1N=C(c2ccc(Cl)cc2)CCC1=O)c1cccc(Cl)c1 [Example 1-18, N-(3-Chlorophenyl)-2-[3-(4-chlorophenyl)-6-oxo-4,5-dihydropyridazin-1-yl]-N-methyl-acetamide] | 900 |
| CN(C(=O)CN1N=C(c2ccc(Cl)cc2)CCC1=O)c1cccc(C(F)(F)F)c1 [Example 1-19, 2-[3-(4-Chlorophenyl)-6-oxo-4,5-dihydropyridazin-1-yl]-N-methyl-N-[3-(trifluoromethyl)phenyl]acetamide] | 1000 |
| COc1ccc(N(C)C(=O)CN2N=C(c3ccc(Cl)cc3)CCC2=O)cc1 [Example 1-20, 2-[3-(4-Chlorophenyl)-6-oxo-4,5-dihydropyridazin-1-yl]-N-(4-methoxyphenyl)-N-methyl-acetamide] | 5690 |
| Cc1cccc(N(C)C(=O)CN2N=C(c3ccc(Cl)cc3)CCC2=O)c1 [Example 1-21, 2-[3-(4-Chlorophenyl)-6-oxo-4,5-dihydropyridazin-1-yl]-N-methyl-N-(m-tolyl)acetamide] | 2080 |
| CN(C(=O)CN1N=C(c2ccc(Cl)c(F)c2)CCC1=O)c1ccc(F)cc1 [Example 1-22, 2-[3-(4-Chloro-3-fluoro-phenyl)-6-oxo-4,5-dihydropyridazin-1-yl]-N-(4-fluorophenyl)-N-methyl-acetamide] | 940 |
| CN(C(=O)CN1N=C(c2ccc(Cl)c(F)c2)CCC1=O)c1cccc(F)c1 [Example 1-23, 2-[3-(4-Chloro-3-fluoro-phenyl)-6-oxo-4,5-dihydropyridazin-1-yl]-N-(3-fluorophenyl)-N-methyl-acetamide] | 460 |
| CN(C(=O)CN1N=C(c2ccc(Cl)c(F)c2)CCC1=O)c1cccc(Cl)c1 [Example 1-24, 2-[3-(4-Chloro-3-fluoro-phenyl)-6-oxo-4,5-dihydropyridazin-1-yl]-N-(3-chlorophenyl)-N-methyl-acetamide] | 168 |
| CN(C(=O)CN1N=C(c2ccc(Cl)c(F)c2)CCC1=O)c1ccc(C(F)(F)F)cc1 [Example 1-25, 2-[3-(4-Chloro-3-fluoro-phenyl)-6-oxo-4,5-dihydropyridazin-1-yl]-N-methyl-N-[4-(trifluoromethyl)phenyl]acetamide] | 240 |
| Cc1cc(Cl)ccc1C1=NN(CC(=O)N(C)c2ccc(Cl)cc2)C(=O)CC1 [Example 1-26, 2-[3-(4-Chloro-2-methylphenyl)-6-oxo-4,5-dihydropyridazin-1-yl]-N-(4-chlorophenyl)-N-methyl-acetamide] | 1880 |
| Cc1cc(Cl)ccc1C1=NN(CC(=O)N(C)c2cccc(Cl)c2)C(=O)CC1 [Example 1-27, 2-[3-(4-Chloro-2-methyl-phenyl)-6-oxo-4,5-dihydropyridazin-1-yl]-N-(3-chlorophenyl)-N-methyl-acetamide] | 814 |
| Cc1cc(Cl)ccc1C1=NN(CC(=O)N(C)c2cccc(F)c2)C(=O)CC1 [Example 1-28, 2-[3-(4-Chloro-2-methyl-phenyl)-6-oxo-4,5-dihydropyridazin-1-yl]-N-(3-fluorophenyl)-N-methyl-acetamide] | 4590 |
| Cc1cc(Cl)ccc1C1=NN(CC(=O)N(C)c2cccc(C(F)(F)F)c2)C(=O)CC1 [Example 1-29, 2-[3-(4-Chloro-2-methylphenyl)-6-oxo-4,5-dihydropyridazin-1-yl]-N-methyl-N-[3-(trifluoromethyl)phenyl]acetamide] | 483 |
| CN(C(=O)CN1N=C(c2ccc(F)cc2F)CCC1=O)c1ccc(C(F)(F)F)cc1 [Example 1-30, 2-[3-(2,4-Difluorophenyl)-6-oxo-4,5-dihydropyridazin-1-yl]-N-methyl-N-[4-(trifluoromethyl)phenyl]acetamide] | 402 |
| CN(C(=O)CN1N=C(c2ccc(F)cc2F)CCC1=O)c1cccc(C(F)(F)F)c1 [Example 1-31, 2-[3-(2,4-Difluorophenyl)-6-oxo-4,5-dihydropyridazin-1-yl]-N-methyl-N-[3-(trifluoromethyl)phenyl]acetamide] | 830 |
| CN(C(=O)CN1N=C(c2ccc(F)cc2F)CCC1=O)c1ccc(F)c(C(F)(F)F)c1 [Example 1-32, 2-[3-(2,4-Difluorophenyl)-6-oxo-4,5-dihydropyridazin-1-yl]-N-[4-fluoro-3-(trifluoromethyl)phenyl]-N-methyl-acetamide] | 513 |
